# Source: patent US12448368B2, “Indole compounds as androgen receptor modulators” (NIDO BIOSCIENCES, INC., priority 2020, dated 2025)
# Molecular target: T1, androgen receptor (AR) (Homo sapiens, UniProt P10275, T878A)
# T1 construct: LNCaP cells expressing ARR2PB-FireflyLuc and CMV-RenillaLuc; endogenous in cells; host or cells: LNCaP cells carrying ARR2PB-FireflyLuc and CMV-RenillaLuc reporters
# T1 sequence (P10275 1-920 T878A): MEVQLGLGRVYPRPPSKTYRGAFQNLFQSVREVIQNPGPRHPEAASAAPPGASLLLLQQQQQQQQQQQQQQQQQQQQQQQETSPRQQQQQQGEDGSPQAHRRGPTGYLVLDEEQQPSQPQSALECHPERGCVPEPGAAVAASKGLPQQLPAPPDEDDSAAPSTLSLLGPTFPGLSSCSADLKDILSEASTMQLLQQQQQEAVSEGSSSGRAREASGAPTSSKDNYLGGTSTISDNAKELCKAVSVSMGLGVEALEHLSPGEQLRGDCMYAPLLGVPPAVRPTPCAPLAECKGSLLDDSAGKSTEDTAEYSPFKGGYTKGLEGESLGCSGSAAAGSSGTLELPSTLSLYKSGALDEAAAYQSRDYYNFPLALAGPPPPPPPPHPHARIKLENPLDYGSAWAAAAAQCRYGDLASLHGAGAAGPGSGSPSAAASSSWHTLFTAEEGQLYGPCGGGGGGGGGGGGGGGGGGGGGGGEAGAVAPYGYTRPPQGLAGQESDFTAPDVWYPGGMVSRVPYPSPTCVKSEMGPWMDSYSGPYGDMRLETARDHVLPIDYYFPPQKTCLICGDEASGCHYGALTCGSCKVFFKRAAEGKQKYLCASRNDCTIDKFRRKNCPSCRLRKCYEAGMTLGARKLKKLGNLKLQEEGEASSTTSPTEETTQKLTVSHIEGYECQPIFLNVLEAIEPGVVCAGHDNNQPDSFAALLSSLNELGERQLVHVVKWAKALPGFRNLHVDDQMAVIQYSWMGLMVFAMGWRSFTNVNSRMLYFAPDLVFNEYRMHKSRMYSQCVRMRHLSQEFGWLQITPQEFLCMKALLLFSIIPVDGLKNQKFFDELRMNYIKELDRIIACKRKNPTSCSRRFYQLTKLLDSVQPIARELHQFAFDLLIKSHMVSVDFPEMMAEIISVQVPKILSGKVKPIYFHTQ
# Assay: AR reporter assay in LNCaP cells expressing ARR2PB-FireflyLuc and CMV-RenillaLuc, antagonist mode (% remaining activity, IC50)
# Type: cell-based
# Conditions: 48 h at 37° C., class symbols A-D, read-out: IC50
# Method: LNCaP cells expressing ARR2PB-FireflyLuc and CMV-RenillaLuc were treated with indicated concentrations of test compounds, enzalutamide (negative control), or DHT (positive control)+/−0.5 nM DHT for 48 h at 37° C. […] Remaining activity (antagonist mode) was calculated as % Remaining Activity=100×[(Readsample−LCave)/(HCave−LCave)] where HC is cells treated with 0.5 nM DHT only and LC is cells treated with 10 uM enzalutamide+0.5 nM DHT. Activation (agonist mode) was calculated as % Activation=100×[(ReadSample−LCave)/(HCave−LCave)] where HC is cells treated with 1 uM DHT and LC is cells treated with DMSO. Dose response curves and IC50 values were calculated using non-linear regression analysis in XLfit.
# The designation “A” indicates an IC50 value of >10 μM, “B” indicates an IC50 value between 1 μM and 10 μM; “C” indicates an IC50 value between 100 nM and 1 μM; and “D” indicates an IC50 value of less than 100 nM.
row,SMILES,IC50
1,Cc1nc(-c2c(C)[nH]c3c(C#N)cccc23)ccc1N [Compound 155],> 10 µM
2,CN1C(=O)c2ccc(-c3c[nH]c4c(C#N)cccc34)nc2C1(C)C [Compound 156],0.1 to 1 µM
3,COCCN1C(=O)c2ccc(-c3c[nH]c4c(C#N)cccc34)nc2C1(C)C [Compound 157],> 10 µM
4,CC1(C)c2nc(-c3c[nH]c4c(C#N)cccc34)ccc2C(=O)N1C1CCOC1 (stereo not shown) [Compound 158],> 10 µM
5,Cc1nc(-c2c[nH]c3c(C(F)(F)F)cccc23)ccc1N [Compound 159],0.1 to 1 µM
6,CC(=O)c1cccc2c(-c3ccc(N)c(C)n3)c[nH]c12 [Compound 160],> 10 µM
7,Cc1cccc(-c2c[nH]c3cc(C#N)ccc23)n1 [Compound 161],1 to 10 µM
8,Cc1cccc(-c2c[nH]c3ccc(C#N)cc23)n1 [Compound 162],1 to 10 µM
9,COCCNc1ccc(-c2c[nH]c3c(C#N)cccc23)nc1C [Compound 163],0.1 to 1 µM
10,Cc1nc(-c2c[nH]c3c(C#N)cccc23)ccc1NC1CCOC1 (stereo not shown) [Compound 164],0.1 to 1 µM
11,COCCOc1ccc(-c2c[nH]c3c(C#N)cccc23)nc1C [Compound 165],0.1 to 1 µM
12,COc1ccc(-c2c[nH]c3c(C#N)cccc23)nc1C [Compound 166],< 0.1 µM
13,COCCOc1cccc(-c2c[nH]c3c(C#N)cccc23)n1 [Compound 167],1 to 10 µM
14,N#Cc1cccc2c(-c3cccc(OC4CCNC4)n3)c[nH]c12 (stereo not shown) [Compound 168],> 10 µM
15,COCCOc1nc(-c2c[nH]c3c(C#N)cccc23)ccc1N [Compound 170],0.1 to 1 µM
16,N#Cc1cccc2c(-c3cnc(OC(F)F)c(N)c3)c[nH]c12 [Compound 171],< 0.1 µM
17,N#Cc1cccc2c(-c3cnc(N)c(OC(F)F)n3)c[nH]c12 [Compound 172],< 0.1 µM
18,CN1C(=O)c2ccc(-c3c[nH]c4c(C#N)cccc34)nc2C1(C)CO (stereo not shown) [Compound 173],1 to 10 µM
19,N#Cc1cccc2c(-c3cnccn3)c[nH]c12 [Compound 174],1 to 10 µM

row,SMILES,IC50
1,Cc1cncc(-c2c[nH]c3c(C#N)cccc23)n1 [Compound 175],0.1 to 1 µM
2,N#Cc1cccc2c(-c3ccccn3)c[nH]c12 [Compound 176],0.1 to 1 µM
3,COCCN(C)c1cncc(-c2c[nH]c3c(C#N)cccc23)n1 [Compound 177],0.1 to 1 µM
4,N#Cc1cccc2c(-c3cccc(N4CCC4)n3)c[nH]c12 [Compound 178],0.1 to 1 µM
5,Cc1nc2ccc(-c3c[nH]c4c(C#N)cccc34)cc2s1 [Compound 179],0.1 to 1 µM
6,N#Cc1cccc2c(-c3ccc4nc(N)sc4c3)c[nH]c12 [Compound 180],1 to 10 µM
7,Cc1nc(-c2c[nH]c3c(C#N)cccc23)cnc1NC1CCNC1 (stereo not shown) [Compound 181],0.1 to 1 µM
8,Cc1nc(-c2c[nH]c3c(C#N)cccc23)cnc1NC1CCN(C)C1 (stereo not shown) [Compound 182],0.1 to 1 µM
9,Cc1nc(-c2c[nH]c3c(C#N)cccc23)cnc1OC1CCNC1 (stereo not shown) [Compound 183],0.1 to 1 µM
10,CC1(C)NC(=O)c2ccc(-c3c[nH]c4c(C#N)c(F)ccc34)nc21 [Compound 184],0.1 to 1 µM
11,CC1(C)NC(=O)c2ccc(-c3c[nH]c4c(C#N)c(Cl)ccc34)nc21 [Compound 185],1 to 10 µM
12,Cc1nc(-c2c[nH]c3c(C(F)(F)F)cccc23)cnc1N [Compound 186],0.1 to 1 µM
13,CC1(C)NC(=O)c2ccc(-c3c[nH]c4c(C(F)(F)F)cccc34)nc21 [Compound 187],< 0.1 µM
14,CN1C(=O)c2ccc(-c3c[nH]c4c(C(F)(F)F)cccc34)nc2C1(C)C [Compound 188],0.1 to 1 µM
15,Cc1nc(-c2c[nH]c3c(C#N)cccc23)ccc1NCCO [Compound 190],0.1 to 1 µM
16,Cc1nc(-c2c[nH]c3c(C#N)cccc23)ccc1NC(C)C(=O)N(C)C (stereo not shown) [Compound 191],1 to 10 µM
17,N#Cc1cccc2c(-c3ccc(N)c(OC(F)F)n3)c[nH]c12 [Compound 192],0.1 to 1 µM
18,Cc1nc(-c2c[nH]c3c(C#N)cccc23)cnc1OC1CCN(C)C1 (stereo not shown) [Compound 193],1 to 10 µM
